Assays:
Type in all cases: cell-based, human
[1] = test system: SH-SY5Y cells transfected with AP180-C; experiment: Uptake in cells overexpressing AP180-C; conditions: SH-SY5Y 24 h post transfection; HF488-labelled Aβ 1 µM 1 h or AF647-Trf 5 µg/ml 5 min; low and high mRFP gates; N = 2, n = 2–4
Experimental: Flow cytometry was used to quantify cellular uptake. The samples were washed in serum free medium (1x for experiments including only Aβ and 3x for experiments with Trf) prior to incubation with Aβ peptides and/or other reagents in serum free medium supplemented with 30 mM HEPES and 2% B-27. For experiments including Trf B-27 was omitted, as outlined above. Prior to analysis, the cells were washed 1x (for experiments including only Aβ) or 3x (for experiments including Aβ and dextran 10 kDa or Trf) in serum free medium, detached by trypsin-EDTA for 10 min followed by addition of FBS-supplemented cell culture medium to inhibit further proteolytic degradation. All samples were kept on ice until they were analysed on a Guava EasyCyte 8HT (Millipore, Darmstadt, Germany) that automatically retrieves samples from a 96-well plate. In order to exclude effects due to difference in delay time we used mixed order of analysis, loading only a few samples at a time with the remaining samples kept on ice. The cell counting gate was determined using propidium iodide (0.5 µM, not washed away prior to analysis) and calcein-AM (10 nM, 15 min staining) to distinguish live and dead cells, and for each sample 5,000 cells from within the live gate were counted and analysed. HF488, AlexaFluor488, EGFP and calcein-AM were excited by a 488 nm laser and their fluorescence was detected through a 525/30 nm filter. Propidium iodide and mRFP were excited by the 488 nm laser but detected through a 692/46 nm filter. HF647 and AlexaFluor647 were excited with a 635 nm laser and detected through a 661/19 nm filter. Compensation was performed to adjust for bleed through in experiments including mRFP. Mean cellular uptake was estimated as the average fluorescence intensity of all cells gated within the live region and all individual experiments were performed with three technical replicates (n = 3) unless else is stated. The average fluorescence intensity was baseline corrected by subtracting the signal for unstained cells. […]

[2] = test system: SH-SY5Y cells; experiment: Flow cytometry quantification of cellular uptake and clearance; conditions: 500 nM, up to 3 days, 500 nM to 2.5 µM for 5 h
Experimental: SH-SY5Y cells were grown in a 1:1 mixture of minimal essential medium (MEM) and nutrient mixture F-12 Ham supplemented with 10% heat-inactivated fetal bovine serum, 1% MEM non-essential amino acids and 2 mM L-glutamine. The cells were detached (trypsin-EDTA 0.05%, 5 minutes) and passaged twice a week. Cells were plated 1day prior to experiments in either flat-bottomed 96 well plates (Nunc; 60,000 cells/well for experiments <1day and 20,000 cells/well for experiments ≥1day) for flow cytometry or in glass-bottomed culture dishes (MatTek; 25,000 cells/14 mm dish) for microscopy.
Flow cytometry was used to quantify cellular uptake. […] All samples were kept on ice until they were analysed on a Guava EasyCyte 8HT (Millipore, Darmstadt, Germany) that automatically retrieves samples from a 96-well plate. […] The cell counting gate was determined using propidium iodide (0.5 µM, not washed away prior to analysis) and calcein-AM (10 nM, 15 min staining) to distinguish live and dead cells, and for each sample 5,000 cells from within the live gate were counted and analysed. HF488, AlexaFluor488, EGFP and calcein-AM were excited by a 488 nm laser and their fluorescence was detected through a 525/30 nm filter. Propidium iodide and mRFP were excited by the 488 nm laser but detected through a 692/46 nm filter. HF647 and AlexaFluor647 were excited with a 635 nm laser and detected through a 661/19 nm filter. […]

[3] = test system: SH-SY5Y cells transfected with Arf6 WT/Q67L; experiment: Uptake in cells transfected with Arf6 WT or Q67L (confocal imaging); conditions: SH-SY5Y 24 h post transfection, 1 µM HF488-labelled Aβ 24 h, confocal microscopy
Experimental: The samples were washed 1x in serum free medium prior to incubation with Aβ peptides and/or other reagents also in serum free medium that was supplemented with 30 mM HEPES and 2% B-27. For experiments including Trf B-27 was omitted as it, according to the media formulation provided by the manufacturer, contains unlabelled Trf that interferes with the experiment. Prior to imaging, cells were stained with 50 nM LysoTracker Deep Red for 30 min and 5 µg/ml Hoechst 33342 was added during the last 10 min of incubation. The cells were thereafter washed 1x, treated with 5 µg/ml FM 4–64 and imaged immediately (for labelling of cellular membrane) or after 10 min incubation at 37 °C (for labelling of cellular membrane and endocytic vesicles). […] The scanner unit was mounted onto a Leica DMIRB microscope equipped with an oil immersion 63x NA 1.47 Leica HCX PL APO objective for imaging and co-localisation analysis, or a 40x NA 0.55 Leica N PLAN L CORR air objective for quantification of peptide uptake. The sample was excited and detected sequentially with appropriate excitation laser lines and emission filters. […]

Substance	uptake in AP180-C transfected cells compared to non-transfected cells [1]	saturation of intracellular concentration [2]	Aβ uptake in Arf6 Q67L versus wild-type Arf6 overexpressing cells [3]
Aβ(1–40): Synthetic 40 residue amyloid-β peptide conjugated to HiLyte Fluor HF488 (or HF647) at the N-terminus, from Anaspec	neither Aβ(1–40) nor Aβ(1–42) uptake was affected	neither Aβ(1–40) nor Aβ(1–42) appears to saturate	no difference
Aβ(1–42): Synthetic 42 residue amyloid-β peptide conjugated to HiLyte Fluor HF488 (or HF647) at the N-terminus, from Anaspec	small but statistically significant increase	neither Aβ(1–40) nor Aβ(1–42) appears to saturate	no difference

From PMC5435687 (Scientific Reports, 2017)
